Data reported in patent US11530206B2, “Phenylaminopyrimidine amide autophagy inhibitors and methods of use thereof” (Deciphera Pharmaceuticals, LLC, priority 2019, dated 2022).

Experiments:
[1] = target: T1, ULK1 kinase (Homo sapiens, UniProt O75385, E37A/K38A); assay: Biochemical assay for ULK1.3 (coupled pyruvate kinase/lactate dehydrogenase assay, peptide substrate); details: 0.1 nM ULK1 (residues 1-283), 1 mM ATP
T1 construct: purchased Beryllium
T1 sequence (O75385 1-283 E37A/K38A): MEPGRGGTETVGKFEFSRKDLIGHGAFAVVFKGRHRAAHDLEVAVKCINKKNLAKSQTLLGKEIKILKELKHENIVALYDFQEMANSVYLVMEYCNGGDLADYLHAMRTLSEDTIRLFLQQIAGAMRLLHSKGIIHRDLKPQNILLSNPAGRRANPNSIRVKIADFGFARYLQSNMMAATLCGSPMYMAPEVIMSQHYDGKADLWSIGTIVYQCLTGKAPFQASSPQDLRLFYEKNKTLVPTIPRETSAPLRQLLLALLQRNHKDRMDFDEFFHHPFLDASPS
How it was run: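 ULK1.3 activity was followed by continuous decrease in 340 nm absorbance over 6 h at 30 °C with 1% DMSO final. Rates were taken from the 2–3 h window and converted to percent inhibition against no-compound and known-inhibitor controls. IC50 values came from curve fitting.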

[2] = system: ULK kinase; assay: pATG13 levels of mutant KRas A549 cells after treatment with ULK inhibitors in combination with trametinib (ELISA); assay type: cell-based, human; details: A549 (KRAS mutant) lung cancer cells, 250 nM trametinib, overnight, pS318-ATG13
How it was run: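 Lysates with phosphatase/protease inhibitors assayed by pATG13 ELISA, A450 minus A540 background and blank-corrected. % ATG13 phosphorylation versus DMSO controls fitted to IC50.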

[3] = system: ULK kinase; assay: pATG13 levels of mutant KRas MiaPaCa-2 cells after treatment with ULK inhibitors in combination with trametinib (ELISA); assay type: cell-based, human; details: MiaPaCa-2 pancreatic cancer cells, 250 nM trametinib, overnight, pS318-ATG13
How it was run: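 MiaPaCa-2 cells in DMEM with 10% FBS and 2.5% horse serum were pretreated with trametinib or DMSO, then given a test-compound dose response overnight at 37° C. Lysates were assayed for phospho-ATG13 by ELISA (A450 minus A540 background, blank-corrected). % phosphorylation was calculated relative to controls and fitted to IC50.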

[4] = system: ULK kinase; assay: pATG13 levels of mutant KRas HCT-116 cells after treatment with ULK inhibitors in combination with trametinib (ELISA); assay type: cell-based, human; details: HCT-116 colon cancer cells, 250 nM trametinib, overnight, pS318-ATG13
Protocol: The following day, 10 μL of media containing trametinib or DMSO as a control was added to wells. […] A dose response of a test compound (0.6 μL per well) was added. DMSO (0.6 μL) was added to control wells. The plate was briefly shaken to mix wells and then incubated at 37° C. overnight. The next day, the media was aspirated and cells were washed with Dulbecco's Phosphate Buffered Saline (Gibco). Cells were lysed using MPER lysis buffer (Pierce, Rockford, Ill.) containing Halt Phosphatase and Protease Inhibitors (Pierce, Rockford, Ill.) and Phosphatase inhibitor cocktail 2 (Sigma, St. Louis, Mo.) at 4° C. for 10 minutes with shaking.
(§1) Plate wells were washed with ELISA wash buffer. Cell lysate was added to wells and incubated at room temperature for 2 hours. Plate wells were washed with ELISA wash buffer. […] Plate wells were washed with ELISA wash buffer. […] Plate wells were washed with ELISA wash buffer. […] The reaction was stopped with 2N Sulfuric Acid. The plate was analyzed at on a plate reader measuring absorbance at 450 nm and 540 nm (background). Signal was calculated by first subtracting the background absorbance at 540 nm from the absorbance at 450 nm for each well. Next, the background corrected absorbance at 450 nm from blank wells was subtracted from test wells. Data was compared to control wells to determine % ATG13 phosphorylation. GraphPad Prism was used to calculate IC50 values.

[5] = system: ULK kinase; assay: pATG13 levels of mutant HRas T24 cells after treatment with ULK inhibitors in combination with trametinib (ELISA); assay type: cell-based, human; details: T24 urinary bladder cancer cells (mutant HRas), 250 nM trametinib, overnight, pS318-ATG13
Protocol: T24 human urinary bladder cancer cells (25000 cells/well) were added to a 96-well tissue-culture treated plate in 100 μL of pre-warmed DMEM medium supplemented with 10% characterized fetal bovine serum (Invitrogen, Carlsbad, Calif.), 100 units/mL penicillin G, and 100 μg/mL streptomycin and allowed to grow overnight at 37° C., 5% CO2, and 95% humidity. The following day, 100 μL of media containing trametinib or DMSO as a control was added to wells. […] A dose response of a test compound (0.5 μL per well) was added. DMSO (0.5 μL) was added to control wells. The plate was briefly shaken to mix wells and then incubated at 37° C. overnight. The next day, the media was aspirated and cells were washed with Dulbecco's Phosphate Buffered Saline (Gibco). Cells were lysed using MPER lysis buffer (Pierce, Rockford, Ill.) containing Halt Phosphatase and Protease Inhibitors (Pierce, Rockford, Ill.) and Phosphatase inhibitor cocktail 2 (Sigma, St. Louis, Mo.) at 4° C. for 10 minutes with shaking.
as §1

IC50 [1]: 1 to 25 nM | IC50 [2]: 10 to 100 nM | IC50 [3]: 10 to 100 nM | IC50 [4]: 10 to 100 nM | IC50 [5]: 100 to 300 nM
SMILES: O=C1CCCCN1CCCNc1nc(Nc2ccc(N3CCNCC3)cc2C2CC2)ncc1C(F)(F)F [Example 34, 1-(3-((2-((2-cyclopropyl-4-(piperazin-1-yl)phenyl)amino)-5-(trifluoromethyl)pyrimidin-4-yl)amino)propyl)piperidin-2-one]
